How the values were obtained:
[1] = molecular target: T1, 5-hydroxytryptamine receptor 1A (Homo sapiens) (UniProt P08908); test: Displacement of [3H]8-OH-DPAT from recombinant human 5-HT1A receptor expressed in HEK293 cell membranes at 10 uM after 60 mins by TopCount scintillation counting method relative to control
T1 sequence (whole entry): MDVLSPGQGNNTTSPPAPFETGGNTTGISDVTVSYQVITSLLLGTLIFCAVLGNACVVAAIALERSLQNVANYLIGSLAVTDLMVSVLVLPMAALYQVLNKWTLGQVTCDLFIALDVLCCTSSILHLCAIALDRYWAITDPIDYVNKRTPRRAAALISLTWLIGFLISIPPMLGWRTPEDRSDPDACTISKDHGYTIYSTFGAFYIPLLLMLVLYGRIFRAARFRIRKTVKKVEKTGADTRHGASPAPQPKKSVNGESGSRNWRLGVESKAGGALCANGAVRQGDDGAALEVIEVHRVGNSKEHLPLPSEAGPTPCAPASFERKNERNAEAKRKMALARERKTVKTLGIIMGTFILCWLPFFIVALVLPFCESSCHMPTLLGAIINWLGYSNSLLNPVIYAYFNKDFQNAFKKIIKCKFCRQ

[2] = molecular target: T2, 5-hydroxytryptamine receptor 7 (Homo sapiens, UniProt P34969); test: Displacement of [3H]LSD from recombinant human 5-HT7 receptor expressed in CHO cell membranes at 10 uM after 120 mins by TopCount scintillation counting method relative to control
[3] = molecular target: T2, 5-hydroxytryptamine receptor 7; test: Displacement of [3H]LSD from recombinant human 5-HT7 receptor expressed in CHO cell membranes after 120 mins by TopCount scintillation counting method
[4] = Clearance in rat liver microsomes at 1 uM in presence of NADPH by LC-MS/MS analysis; type: ADME, microsome; conditions: read-out: CLH
[5] = test system: Mus musculus; test: Antidepressant-like activity in mouse assessed as reduction in immobility time at 20 mg/kg/day, po once daily for 7 days measured for last 4 mins of 6 mins test at 1 hr post last dose by forced swim test relative to control; type: functional; set-up: scale not given: the % may be the effect or the level left
[6] = test system: Mus musculus; test: Antidepressant-like activity in mouse assessed as reduction in immobility time at 10 mg/kg/day, po once daily for 7 days measured for last 4 mins of 6 mins test at 1 hr post last dose by forced swim test relative to control; type: functional; set-up: scale not given: the % may be the effect or the level left
[7] = test system: Mus musculus; test: Antidepressant-like activity in po dosed mouse assessed as reduction in immobility time administered once daily for 7 days measured for last 4 mins of 6 mins test at 1 hr post last dose by forced swim test; type: functional, organism-based
[8] = molecular target: Voltage-gated inwardly rectifying potassium channel KCNH2 (Homo sapiens, UniProt Q12809); test: Inhibition of human ERG expressed in CHO-K1 cells assessed as reduction in tail current amplitude at -80 mV holding potential after 2 mins by path clamp assay; type: cell-based
[9] = test system: Mus musculus; test: Antidepressant-like activity in po dosed mouse assessed as reduction in immobility time administered once daily for 7 days measured for 5 mins at 1 hr post last dose by tail suspension test; type: functional, organism-based
[10] = test system: Mus musculus; test: Antidepressant-like activity in mouse assessed as reduction in immobility time at 40 mg/kg/day, po administered once daily for 7 days measured for 5 mins at 1 hr post last dose by tail suspension test relative to control; type: functional; set-up: scale not given: the % may be the effect or the level left
[11] = species on record: Homo sapiens; test: Selectivity ratio of Ki for alpha1-adrenoceptor (unknown origin) in cerebral cortex membranes to Ki for recombinant human 5-HT1A receptor expressed in HEK293 cell membranes; type: cell-based
[12] = AUC (0 to infinity) in Sprague-Dawley rat at 2 mg/kg, po administered as single dose by LC-MS/MS analysis; type: ADME, organism-based; set-up: dose 2 mg/kg, time infinity, route oral; conditions: in vivo
[13] = MRT (0 to t) in Sprague-Dawley rat at 2 mg/kg, po administered as single dose by LC-MS/MS analysis; type: ADME, organism-based; conditions: in vivo
[14] = Apparent volume of distribution during terminal phase in Sprague-Dawley rat at 2 mg/kg, po administered as single dose by LC-MS/MS analysis; type: ADME, organism-based; conditions: in vivo, read-out: Vz/F
[15] = Apparent clearance during terminal phase in Sprague-Dawley rat at 2 mg/kg, po administered as single dose by LC-MS/MS analysis; type: ADME, organism-based; conditions: in vivo, read-out: CLz/F (converted)
[16] = Apparent terminal half life in Sprague-Dawley rat at 2 mg/kg, po administered as single dose by LC-MS/MS analysis; type: ADME, organism-based; conditions: in vivo, read-out: betat1/2(app) (converted)
[17] = Tmax in Sprague-Dawley rat at 2 mg/kg, po administered as single dose by LC-MS/MS analysis; type: ADME, organism-based; conditions: in vivo
[18] = Cmax in Sprague-Dawley rat at 2 mg/kg, po administered as single dose by LC-MS/MS analysis; type: ADME, organism-based; set-up: dose 2 mg/kg, route oral; conditions: in vivo
[19] = Oral bioavailability in Sprague-Dawley rat at 2 mg/kg administered as single dose by LC-MS/MS analysis; type: ADME, organism-based; conditions: in vivo
[20] = AUC (0 to infinity) in Sprague-Dawley rat at 0.5 mg/kg, iv administered as single dose by LC-MS/MS analysis; type: ADME, organism-based; set-up: dose 0.5 mg/kg, time infinity, route intravenous; conditions: in vivo
[21] = MRT (0 to t) in Sprague-Dawley rat at 0.5 mg/kg, iv administered as single dose by LC-MS/MS analysis; type: ADME, organism-based; conditions: in vivo
[22] = Apparent terminal half life in Sprague-Dawley rat at 0.5 mg/kg, iv administered as single dose by LC-MS/MS analysis; type: ADME, organism-based; conditions: in vivo, read-out: betat1/2(app) (converted)
[23] = Cmax in Sprague-Dawley rat at 0.5 mg/kg, iv administered as single dose by LC-MS/MS analysis; type: ADME, organism-based; set-up: dose 0.5 mg/kg, route intravenous; conditions: in vivo
[24] = Plasma concentration in Sprague-Dawley rat at 2 mg/kg, po administered as single dose measured after 15 mins by LC-MS/MS analysis; type: ADME, organism-based
[25] = Plasma concentration in Sprague-Dawley rat at 2 mg/kg, po administered as single dose measured after 30 mins by LC-MS/MS analysis; type: ADME, organism-based
[26] = Plasma concentration in Sprague-Dawley rat at 2 mg/kg, po administered as single dose measured after 2 hrs by LC-MS/MS analysis; type: ADME, organism-based
[27] = Plasma concentration in Sprague-Dawley rat at 2 mg/kg, po administered as single dose measured after 6 hrs by LC-MS/MS analysis; type: ADME, organism-based
[28] = Plasma concentration in Sprague-Dawley rat at 0.5 mg/kg, iv administered as single dose measured after 5 mins by LC-MS/MS analysis; type: ADME, organism-based
[29] = Plasma concentration in Sprague-Dawley rat at 0.5 mg/kg, iv administered as single dose measured after 15 mins by LC-MS/MS analysis; type: ADME, organism-based
[30] = Plasma concentration in Sprague-Dawley rat at 0.5 mg/kg, iv administered as single dose measured after 1 hr by LC-MS/MS analysis; type: ADME, organism-based
[31] = Plasma concentration in Sprague-Dawley rat at 0.5 mg/kg, iv administered as single dose measured after 2 hrs by LC-MS/MS analysis; type: ADME, organism-based
[32] = Plasma concentration in Sprague-Dawley rat at 0.5 mg/kg, iv administered as single dose measured after 4 hrs by LC-MS/MS analysis; type: ADME, organism-based
[33] = Plasma concentration in Sprague-Dawley rat at 0.5 mg/kg, iv administered as single dose measured after 8 hrs by LC-MS/MS analysis; type: ADME, organism-based
[34] = in vitro; conditions: rat, liver microsomes
Description: Half life in rat liver microsomes at 1 uM in presence of NADPH by LC-MS/MS analysis

T2 sequence (P34969 whole entry): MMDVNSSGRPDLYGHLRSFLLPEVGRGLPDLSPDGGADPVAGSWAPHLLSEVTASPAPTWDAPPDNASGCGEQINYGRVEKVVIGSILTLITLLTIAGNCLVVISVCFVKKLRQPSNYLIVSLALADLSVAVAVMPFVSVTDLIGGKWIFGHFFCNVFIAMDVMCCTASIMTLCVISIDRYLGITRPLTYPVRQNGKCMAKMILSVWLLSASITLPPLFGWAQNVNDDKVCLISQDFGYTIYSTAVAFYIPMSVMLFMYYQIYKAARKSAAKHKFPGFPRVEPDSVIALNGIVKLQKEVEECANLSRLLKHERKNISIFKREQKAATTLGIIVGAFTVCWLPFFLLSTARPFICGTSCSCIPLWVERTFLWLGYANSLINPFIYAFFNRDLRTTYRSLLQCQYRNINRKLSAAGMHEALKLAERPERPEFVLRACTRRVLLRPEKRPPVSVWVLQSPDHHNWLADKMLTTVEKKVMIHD
Chain of Voltage-gated inwardly rectifying potassium channel KCNH2 (Q12809 whole entry): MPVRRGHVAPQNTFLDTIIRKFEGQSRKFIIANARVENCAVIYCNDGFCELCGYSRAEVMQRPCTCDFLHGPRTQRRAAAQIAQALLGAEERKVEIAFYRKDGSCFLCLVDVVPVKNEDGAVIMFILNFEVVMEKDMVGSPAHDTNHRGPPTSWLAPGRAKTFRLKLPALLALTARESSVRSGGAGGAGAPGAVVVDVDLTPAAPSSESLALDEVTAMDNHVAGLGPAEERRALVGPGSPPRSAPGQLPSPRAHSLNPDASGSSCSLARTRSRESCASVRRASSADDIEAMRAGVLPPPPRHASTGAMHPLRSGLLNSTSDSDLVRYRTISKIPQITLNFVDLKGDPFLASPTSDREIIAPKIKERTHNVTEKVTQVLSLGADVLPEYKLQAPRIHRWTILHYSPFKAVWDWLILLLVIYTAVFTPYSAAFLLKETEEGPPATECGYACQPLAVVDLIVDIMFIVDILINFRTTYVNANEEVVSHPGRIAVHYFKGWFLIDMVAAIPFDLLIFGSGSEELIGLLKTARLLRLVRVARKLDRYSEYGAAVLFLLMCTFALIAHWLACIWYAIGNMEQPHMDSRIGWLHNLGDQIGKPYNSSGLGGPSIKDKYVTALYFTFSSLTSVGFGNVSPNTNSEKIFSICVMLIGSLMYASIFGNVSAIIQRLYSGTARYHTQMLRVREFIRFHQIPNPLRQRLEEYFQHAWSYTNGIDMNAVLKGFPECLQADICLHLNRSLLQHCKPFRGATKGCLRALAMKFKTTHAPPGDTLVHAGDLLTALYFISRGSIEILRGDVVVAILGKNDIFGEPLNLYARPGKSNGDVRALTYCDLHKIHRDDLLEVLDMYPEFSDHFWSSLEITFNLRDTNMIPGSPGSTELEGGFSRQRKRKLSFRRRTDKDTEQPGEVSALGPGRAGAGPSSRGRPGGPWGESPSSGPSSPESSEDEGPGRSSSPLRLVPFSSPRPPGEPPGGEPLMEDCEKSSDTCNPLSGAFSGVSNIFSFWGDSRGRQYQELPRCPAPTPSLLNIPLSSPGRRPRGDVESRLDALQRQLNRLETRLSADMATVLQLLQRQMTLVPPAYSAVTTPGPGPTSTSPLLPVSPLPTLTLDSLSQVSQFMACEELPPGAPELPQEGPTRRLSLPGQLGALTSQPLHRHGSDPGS

SMILES: Fc1ccc(N2CCN(CCCc3c[nH]c4ccc(F)cc34)CC2)c(-c2ccccc2)c1
- inhibition [1]: > 90%
- inhibition [2]: > 90%
- Ki [3]: 0.0033 µM
- microsomal CLint at 1 µM [4]: 29.8 µL/min/mg
- Activity [5]: 27%
- Activity [6]: 24%
- Activity [7]: Dose-dependent effect
- IC50 [8]: 16.7 µM
- Activity [9]: Dose-dependent effect
- Activity [10]: 39%
- Ratio Ki [11]: 1
- AUC(0-inf) [12]: 898 ng·h/mL
- MRT last [13]: 4.3 h
- Vd/F [14]: 17.1 L/kg
- CL/F [15]: 40 mL/min/kg
- half-life [16]: 6.1 h
- Tmax [17]: 1.7 h
- Cmax [18]: 86.7 ng/mL
- bioavailability [19]: 68.5%
- AUC(0-inf) [20]: 328 ng·h/mL
- MRT last [21]: 1.9 h
- half-life [22]: 3.3 h
- Cmax [23]: 342 ng/mL
- concentration at […] [24]: 20.4 ng/mL
- concentration at 0.5 h [25]: 58.3 ng/mL
- concentration at 2 h [26]: 76.7 ng/mL
- concentration at 6 h [27]: 64.7 ng/mL
- concentration at 5 min [28]: 342 ng/mL
- concentration at […] [29]: 149 ng/mL
- concentration at 1 h [30]: 51.3 ng/mL
- concentration at 2 h [31]: 32.3 ng/mL
- concentration at 4 h [32]: 20.7 ng/mL
- concentration at 8 h [33]: 8.84 ng/mL
- half-life at 1 µM [34]: 0.775 h
